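Following 48 hours of exposure in 96-well plates, responses at five concentrations were used to interpolate endpoints linearly. At the TGI there is no net growth.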
Experiments:
Assay in all cases: NCI-60 cell line screen, 48 h
CAKI-1 renal = test system: CAKI-1 renal
SNB-75 CNS = test system: SNB-75 CNS
OVCAR-4 ovarian = test system: OVCAR-4 ovarian
A549 NSCLC = test system: A549 NSCLC
NCI-H23 lung = test system: NCI-H23 lung
TK-10 renal = test system: TK-10 renal
HOP-62 NSCLC = test system: HOP-62 NSCLC
HOP-92 NSCLC = test system: HOP-92 NSCLC
OVCAR-3 ovarian = test system: OVCAR-3 ovarian
KM12 colon = test system: KM12 colon
SNB-19 CNS = test system: SNB-19 CNS
RXF 393 renal = test system: RXF 393 renal
SK-MEL-2 melanoma = test system: SK-MEL-2 melanoma
SF-268 CNS = test system: SF-268 CNS
HCT-116 colon = test system: HCT-116 colon
NCI-H460 lung = test system: NCI-H460 lung
K-562 leukemia = test system: K-562 leukemia
LXFL 529 NSCLC = test system: LXFL 529 NSCLC
KM20L2 colon = test system: KM20L2 colon
M19-MEL melanoma = test system: M19-MEL melanoma
UO-31 renal = test system: UO-31 renal
HCC-2998 colon = test system: HCC-2998 colon
ACHN renal = test system: ACHN renal
SF-539 CNS = test system: SF-539 CNS
OVCAR-5 ovarian = test system: OVCAR-5 ovarian
SK-MEL-28 melanoma = test system: SK-MEL-28 melanoma
M14 melanoma = test system: M14 melanoma
NCI-H522 lung = test system: NCI-H522 lung
SK-OV-3 ovarian = test system: SK-OV-3 ovarian
EKVX NSCLC = test system: EKVX NSCLC
MALME-3M melanoma = test system: MALME-3M melanoma
786-0 renal = test system: 786-0 renal
SF-295 CNS = test system: SF-295 CNS
CCRF-CEM leukemia = test system: CCRF-CEM leukemia
U251 CNS = test system: U251 CNS
A498 renal = test system: A498 renal
DLD-1 colon = test system: DLD-1 colon
HT29 colon = test system: HT29 colon
UACC-257 melanoma = test system: UACC-257 melanoma
OVCAR-8 ovarian = test system: OVCAR-8 ovarian
UACC-62 melanoma = test system: UACC-62 melanoma
MCF7 breast = test system: MCF7 breast
MOLT-4 leukemia = test system: MOLT-4 leukemia
LOX IMVI melanoma = test system: LOX IMVI melanoma
SN12C renal = test system: SN12C renal
MDA-MB-231 breast = test system: MDA-MB-231 breast
NCI-H226 lung = test system: NCI-H226 lung
DU-145 prostate = test system: DU-145 prostate
MDA-MB-435 = test system: MDA-MB-435
HCT-15 colon = test system: HCT-15 colon
SW-620 colon = test system: SW-620 colon
SK-MEL-5 melanoma = test system: SK-MEL-5 melanoma
COLO 205 colon = test system: COLO 205 colon
NCI/ADR-RES ovarian = test system: NCI/ADR-RES ovarian
PC-3 prostate = test system: PC-3 prostate
MDA-N = test system: MDA-N
HL-60(TB) leukemia = test system: HL-60(TB) leukemia
HS 578T breast = test system: HS 578T breast
BT-549 breast = test system: BT-549 breast
IGROV1 ovarian = test system: IGROV1 ovarian
T-47D breast = test system: T-47D breast
RPMI-8226 leukemia = test system: RPMI-8226 leukemia
SR leukemia = test system: SR leukemia

CC1OC(OC2CCCc3c(O)c4c(c(O)c32)C(=O)c2ccccc2C4=O)CC(N)C1O (stereo not drawn)
TGI (CAKI-1 renal): 2.91 µM
TGI (SNB-75 CNS): 2.66 µM
TGI (OVCAR-4 ovarian): 3.2 µM
TGI (A549 NSCLC): 3.37 µM
TGI (NCI-H23 lung): 3.22 µM
TGI (TK-10 renal): 3.02 µM
TGI (HOP-62 NSCLC): 2.94 µM
TGI (HOP-92 NSCLC): 2.86 µM
TGI (OVCAR-3 ovarian): 2.62 µM
TGI (KM12 colon): 2.98 µM
TGI (SNB-19 CNS): 3.04 µM
TGI (RXF 393 renal): 2.23 µM
TGI (SK-MEL-2 melanoma): 3.21 µM
TGI (SF-268 CNS): 3.29 µM
TGI (HCT-116 colon): 3.11 µM
TGI (NCI-H460 lung): 2.8 µM
TGI (K-562 leukemia): 2.35 µM
TGI (LXFL 529 NSCLC): 2940 nM
TGI (KM20L2 colon): 3.84 µM
TGI (M19-MEL melanoma): 3.24 µM
TGI (UO-31 renal): 3.11 µM
TGI (HCC-2998 colon): 3.51 µM
TGI (ACHN renal): 3.35 µM
TGI (SF-539 CNS): 3.01 µM
TGI (OVCAR-5 ovarian): 3.44 µM
TGI (SK-MEL-28 melanoma): 3.32 µM
TGI (M14 melanoma): 3.21 µM
TGI (NCI-H522 lung): 3.06 µM
TGI (SK-OV-3 ovarian): 2.42 µM
TGI (EKVX NSCLC): 3.27 µM
TGI (MALME-3M melanoma): 3.27 µM
TGI (786-0 renal): 2550 nM
TGI (SF-295 CNS): 3.22 µM
TGI (CCRF-CEM leukemia): 2640 nM
TGI (U251 CNS): 3.44 µM
TGI (A498 renal): 3.23 µM
TGI (DLD-1 colon): 2690 nM
TGI (HT29 colon): 2.87 µM
TGI (UACC-257 melanoma): 3 µM

O=C(NCCNCCNCCNC(=O)c1cc(-c2ccccc2)nc2ccccc12)c1cc(-c2ccccc2)nc2ccccc12
TGI (OVCAR-8 ovarian): 3.85 µM
TGI (CAKI-1 renal): 29.4 µM
TGI (UACC-62 melanoma): 3.97 µM
TGI (SNB-75 CNS): 3.44 µM
TGI (MCF7 breast): 3.79 µM
TGI (OVCAR-4 ovarian): 13.8 µM
TGI (A549 NSCLC): 18.6 µM
TGI (NCI-H23 lung): 13.1 µM
TGI (TK-10 renal): 11.4 µM
TGI (HOP-62 NSCLC): 5.96 µM
TGI (MOLT-4 leukemia): 4.22 µM
TGI (HOP-92 NSCLC): 7.81 µM
TGI (LOX IMVI melanoma): 3.03 µM
TGI (OVCAR-3 ovarian): 8.11 µM
TGI (KM12 colon): 5.54 µM
TGI (SN12C renal): 11.2 µM
TGI (SNB-19 CNS): 8.93 µM
TGI (RXF 393 renal): 4.34 µM
TGI (SK-MEL-2 melanoma): 3.08 µM
TGI (MDA-MB-231 breast): 7.57 µM
TGI (SF-268 CNS): 10.1 µM
TGI (HCT-116 colon): 3.39 µM
TGI (NCI-H460 lung): 3.4 µM
TGI (K-562 leukemia): 4.12 µM
TGI (NCI-H226 lung): 7.38 µM
TGI (DU-145 prostate): 11.8 µM
TGI (MDA-MB-435): 3.23 µM
TGI (HCT-15 colon): 18.9 µM
TGI (SW-620 colon): 3.31 µM
TGI (SK-MEL-5 melanoma): 2880 nM
TGI (UO-31 renal): 18 µM
TGI (COLO 205 colon): 4 µM
TGI (NCI/ADR-RES ovarian): 29.3 µM
TGI (HCC-2998 colon): 3.1 µM
TGI (ACHN renal): 4.91 µM
TGI (SF-539 CNS): 3.85 µM
TGI (OVCAR-5 ovarian): 4.94 µM
TGI (SK-MEL-28 melanoma): 3.08 µM
TGI (PC-3 prostate): 14.1 µM
TGI (M14 melanoma): 3.39 µM
TGI (NCI-H522 lung): 3.13 µM
TGI (MDA-N): 2970 nM
TGI (HL-60(TB) leukemia): 3.85 µM
TGI (SK-OV-3 ovarian): 11.1 µM
TGI (EKVX NSCLC): 18 µM
TGI (MALME-3M melanoma): 3.31 µM
TGI (HS 578T breast): 4.96 µM
TGI (786-0 renal): 3080 nM
TGI (SF-295 CNS): 3.09 µM
TGI (CCRF-CEM leukemia): > 20500 nM
TGI (U251 CNS): 3.3 µM
TGI (A498 renal): 9.68 µM
TGI (BT-549 breast): 21.9 µM
TGI (IGROV1 ovarian): 7.52 µM
TGI (T-47D breast): 7.66 µM
TGI (RPMI-8226 leukemia): 6.51 µM
TGI (HT29 colon): 3.14 µM
TGI (SR leukemia): 5.01 µM
TGI (UACC-257 melanoma): 3.17 µM

— PubChem BioAssay (NCI)
